From ChEMBL document CHEMBL1134424, “Synthesis and evaluation of caffeic acid amides as antioxidants” (Bioorg Med Chem Lett, 2001)

Assay: Evaluated for the antioxidant property by measuring the inhibition of microsomal lipid peroxidation
Format: functional

Row | SMILES | IC50
1 | CCNC(=O)/C=C/c1ccc(O)c(O)c1 | 2700 nM
2 | O=C(/C=C/c1ccc(O)c(O)c1)NCc1ccccc1 | 1020 nM
3 | CC(C)=CCNC(=O)/C=C/c1ccc(O)cc1 | 29100 nM
4 | O=C(/C=C/c1ccc(O)c(O)c1)N1CCOCC1 | 6100 nM
5 | O=c1c(O)c(-c2ccc(O)c(O)c2)oc2cc(O)cc(O)c12 [QUERCETIN] | 950 nM
6 | O=C(O)/C=C/c1ccc(O)c(O)c1 [CAFFEIC ACID] | 3300 nM
7 | Cc1c(C)c2c(c(C)c1O)CCC(C)(C(=O)O)O2 (stereo not given) [TROLOX] | 2800 nM
8 | CC(C)CCNC(=O)/C=C/c1ccc(O)c(O)c1 | 1400 nM
9 | CNC(=O)/C=C/c1ccc(O)c(O)c1 | 6000 nM
10 | O=C(/C=C/c1ccc(O)c(O)c1)NCCc1ccccc1 [CAFFEIC ACID PHENETHYL AMIDE] | 850 nM
11 | O=C(/C=C/c1ccc(O)c(O)c1)N1CCCCC1 | 3600 nM
12 | O=C(/C=C/c1ccc(O)c(O)c1)NCCc1ccc(O)c(O)c1 | 590 nM
13 | CC(C)NC(=O)/C=C/c1ccc(O)c(O)c1 | 3900 nM
14 | CCN(CC)C(=O)/C=C/c1ccc(O)c(O)c1 | 4100 nM

More lines, in order of falling IC50, values ahead:

Row | IC50 | SMILES
15 | 100000 nM | O=C(O)/C=C/c1ccc(O)cc1 [COUMARIC ACID]
16 | 3400 nM | CC(C)=CCNC(=O)/C=C/c1ccc(O)c(O)c1
17 | 3200 nM | COC(=O)C(Cc1ccc(O)cc1)NC(=O)/C=C/c1ccc(O)c(O)c1 (stereo not given)
18 | 2400 nM | O=C(/C=C/c1ccc(O)c(O)c1)N1CCCC1
19 | 2200 nM | NC(=O)/C=C/c1ccc(O)c(O)c1
20 | 2200 nM | CC(C)CNC(=O)/C=C/c1ccc(O)c(O)c1
21 | 2200 nM | C=CCNC(=O)/C=C/c1ccc(O)c(O)c1
22 | 630 nM | O=C(/C=C/c1ccc(O)c(O)c1)Nc1ccc(O)cc1
23 | 380 nM | O=C(/C=C/c1ccc(O)c(O)c1)Nc1ccccc1
24 | 370 nM | O=C(/C=C/c1ccc(O)c(O)c1)Nc1cccc(O)c1
25 | 290 nM | O=C(/C=C/c1ccc(O)c(O)c1)Nc1ccccc1O
